Experimental data from patent US6737383B1, “Herbicidal oxadiazolidines” (priority 1999, dated 2004).

Experiments:
[1] = system: smallflower flatsedge; assay: Test B flood test smallflower flatsedge; format: in vivo, Cyperus difformis
Outline: (§1)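 Plants were grown to the 2-leaf stage before treatment with test chemical, then held in a greenhouse for twelve to sixteen days. Injury was visually rated against untreated controls on a 0–10 scale, where 0 is no effect and 10 is complete control.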

[2] = system: morningglory; assay: Test B pre/postemergence morningglory; format: in vivo, Ipomoea hederacea
Outline: (§2)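 Test chemicals in a non-phytotoxic solvent mixture with surfactant were sprayed preemergence onto planted seeds and postemergence onto plants 2 to 18 cm tall (1- to 4-leaf stage). After twelve to sixteen days in a greenhouse, injury was visually rated against untreated controls from 0 (no effect) to 10 (complete control).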

[3] = system: rice; assay: Test B flood test rice; format: in vivo, Oryza sativa
Outline: as §1

[4] = system: rape; assay: Test B pre/postemergence rape; format: in vivo, Brassica napus
Outline: as §2

[5] = system: sugar beet; assay: Test B pre/postemergence sugar beet; format: in vivo, Beta vulgaris
Outline: as §2

[6] = system: wild oat; assay: Test B pre/postemergence wild oat; format: in vivo, Avena fatua
Outline: as §2

[7] = system: bedstraw; assay: Test B pre/postemergence bedstraw; format: in vivo, Galium aparine
Outline: as §2

[8] = system: soybean; assay: Test B pre/postemergence soybean; format: in vivo, Glycine max
Outline: as §2

[9] = system: crabgrass; assay: Test B pre/postemergence crabgrass; format: in vivo, Digitaria sanguinalis
Outline: as §2

[10] = system: cocklebur; assay: Test B pre/postemergence cocklebur; format: in vivo, Xanthium strumarium
Outline: as §2

[11] = system: duck salad; assay: Test B flood test duck salad; format: in vivo, Heteranthera limosa
Outline: as §1

[12] = system: corn; assay: Test B pre/postemergence corn; format: in vivo, Zea mays
Outline: as §2

[13] = system: bamyardgrass; assay: Test B flood test barnyardgrass; format: in vivo, Echinochloa crus-galli
Outline: as §1

[14] = system: pigweed; assay: Test B pre/postemergence pigweed; format: in vivo, Amaranthus retroflexus
Outline: as §2

[15] = system: velvetleaf; assay: Test B pre/postemergence velvetleaf; format: in vivo, Abutilon theophrasti
Outline: as §2

[16] = system: surinam grass; assay: Test B pre/postemergence surinam grass; format: in vivo, Brachiaria decumbens
Outline: as §2

[17] = Rate 16 g/ha, head printed Pre-emergence (flood test species), scale 0 to 10, 0 no effect, 10 complete control
[18] = Rate 31 g/ha, Pre-emergence section (flood test species), scale 0 to 10
[19] = Rate 62 g/ha, headed Pre-emergence (flood test species), scale 0 to 10 (0 no effect, 10 complete control)
[20] = Rate 125 g/ha, Pre-emergence, flood test species, scale 0 to 10 where 0 is no effect and 10 is complete control
[21] = Rate 250 g/ha, Pre-emergence, flood-test species, scale 0 to 10, 0 is no effect, 10 is complete control
[22] = Rate 500 g/ha, Pre-emergence, flood test species, scale 0 to 10 (0 no effect, 10 complete control)
[23] = Postemergence, Rate 31 g/ha, visual rating, scale 0 to 10 (0 no effect, 10 complete control)
[24] = Preemergence, Rate 31 g/ha, visual rating, scale 0 to 10 (0 no effect, 10 complete control)
[25] = Preemergence, Rate 62 g/ha, scale of 0 to 10 where 0 is no effect and 10 is complete control
[26] = Rate 16 g/ha, Postemergence, scale 0 to 10, 0 no effect, 10 complete control
[27] = Rate 16 g/ha, Preemergence, scale 0 to 10, 0 no effect, 10 complete control
[28] = Rate 62 g/ha, Postemergence, scale 0 to 10 (0 no effect, 10 complete control)
[29] = Rate 125 g/ha, Postemergence, scale of 0 to 10 where 0 is no effect and 10 is complete control
[30] = Rate 125 g/ha, Preemergence, scale of 0 to 10 where 0 is no effect and 10 is complete control

Question: Which results are given for `CCCCCn1c(=O)on(C(=O)N(c2ccc(F)cc2)C(C)C)c1=O` [Compound 290]?
Answer: S. Flatsedge plant response rating [1, 17]: 0; S. Flatsedge plant response rating [1, 18]: 0; S. Flatsedge plant response rating [1, 19]: 0; S. Flatsedge plant response rating [1, 20]: 2; S. Flatsedge plant response rating [1, 21]: 0; S. Flatsedge plant response rating [1, 22]: 0; Morningglory plant response rating [2, 23]: 4; Morningglory plant response rating [2, 24]: 0; Morningglory plant response rating [2, 25]: 0; Morningglory plant response rating [2, 26]: 3; Morningglory plant response rating [2, 27]: 0; Morningglory plant response rating [2, 28]: 4; Morningglory plant response rating [2, 29]: 6; Morningglory plant response rating [2, 30]: 0; Rice plant response rating [3, 17]: 0; Rice plant response rating [3, 18]: 0; Rice plant response rating [3, 19]: 0; Rice plant response rating [3, 20]: 0; Rice plant response rating [3, 21]: 0; Rice plant response rating [3, 22]: 0; Rape plant response rating [4, 23]: 0; Rape plant response rating [4, 24]: 0; Rape plant response rating [4, 25]: 0; Rape plant response rating [4, 26]: 0; Rape plant response rating [4, 27]: 0; Rape plant response rating [4, 28]: 0; Rape plant response rating [4, 29]: 0; Rape plant response rating [4, 30]: 0; Sugarbeets plant response rating [5, 23]: 0; Sugarbeets plant response rating [5, 24]: 0; Sugarbeets plant response rating [5, 25]: 2; Sugarbeets plant response rating [5, 26]: 0; Sugarbeets plant response rating [5, 27]: 0; Sugarbeets plant response rating [5, 28]: 0; Sugarbeets plant response rating [5, 29]: 0; Sugarbeets plant response rating [5, 30]: 5; Wild oats plant response rating [6, 23]: 0; Wild oats plant response rating [6, 24]: 0; Wild oats plant response rating [6, 25]: 0; Wild oats plant response rating [6, 26]: 0; Wild oats plant response rating [6, 27]: 0; Wild oats plant response rating [6, 28]: 0; Wild oats plant response rating [6, 29]: 0; Bedstraw plant response rating [7, 23]: 0; Bedstraw plant response rating [7, 24]: 0; Bedstraw plant response rating [7, 25]: 0; Bedstraw plant response rating [7, 26]: 0; Bedstraw plant response rating [7, 27]: 0; Bedstraw plant response rating [7, 28]: 0; Bedstraw plant response rating [7, 29]: 0; Bedstraw plant response rating [7, 30]: 3; Soybean plant response rating [8, 23]: 1; Soybean plant response rating [8, 24]: 0; Soybean plant response rating [8, 25]: 0; Soybean plant response rating [8, 26]: 1; Soybean plant response rating [8, 27]: 0; Soybean plant response rating [8, 28]: 2; Soybean plant response rating [8, 29]: 2; Soybean plant response rating [8, 30]: 0; Crabgrass plant response rating [9, 23]: 0; Crabgrass plant response rating [9, 24]: 0; Crabgrass plant response rating [9, 25]: 1; Crabgrass plant response rating [9, 26]: 0; Crabgrass plant response rating [9, 27]: 0; Crabgrass plant response rating [9, 28]: 0; Crabgrass plant response rating [9, 29]: 0; Crabgrass plant response rating [9, 30]: 3; Cocklebur plant response rating [10, 23]: 0; Cocklebur plant response rating [10, 24]: 0; Cocklebur plant response rating [10, 25]: 0; Cocklebur plant response rating [10, 26]: 0; Cocklebur plant response rating [10, 27]: 0; Cocklebur plant response rating [10, 28]: 0; Cocklebur plant response rating [10, 29]: 0; Cocklebur plant response rating [10, 30]: 0; Ducksalad plant response rating [11, 17]: 0; Ducksalad plant response rating [11, 18]: 0; Ducksalad plant response rating [11, 19]: 0; Ducksalad plant response rating [11, 20]: 0; Ducksalad plant response rating [11, 21]: 0; Ducksalad plant response rating [11, 22]: 0; Corn plant response rating [12, 23]: 0; Corn plant response rating [12, 24]: 0; Corn plant response rating [12, 25]: 0; Corn plant response rating [12, 26]: 0; Corn plant response rating [12, 27]: 0; Corn plant response rating [12, 28]: 0; Corn plant response rating [12, 29]: 0; Corn plant response rating [12, 30]: 0; Barnyardgrass plant response rating [13, 17]: 0; Barnyardgrass plant response rating [13, 18]: 6; Barnyardgrass plant response rating [13, 19]: 3; Barnyardgrass plant response rating [13, 20]: 4; Barnyardgrass plant response rating [13, 21]: 4; Barnyardgrass plant response rating [13, 22]: 5; Redroot pigweed plant response rating [14, 23]: 0; Redroot pigweed plant response rating [14, 24]: 0; Redroot pigweed plant response rating [14, 25]: 2; Redroot pigweed plant response rating [14, 26]: 0; Redroot pigweed plant response rating [14, 27]: 0; Redroot pigweed plant response rating [14, 28]: 0; Redroot pigweed plant response rating [14, 29]: 0; Redroot pigweed plant response rating [14, 30]: 7; Velvetleaf plant response rating [15, 23]: 0; Velvetleaf plant response rating [15, 24]: 0; Velvetleaf plant response rating [15, 25]: 0; Velvetleaf plant response rating [15, 26]: 0; Velvetleaf plant response rating [15, 27]: 0; Velvetleaf plant response rating [15, 28]: 0; Velvetleaf plant response rating [15, 29]: 0; Velvetleaf plant response rating [15, 30]: 0; B. signalgrass plant response rating [16, 23]: 0; B. signalgrass plant response rating [16, 24]: 0; B. signalgrass plant response rating [16, 25]: 0; B. signalgrass plant response rating [16, 26]: 0; B. signalgrass plant response rating [16, 27]: 0; B. signalgrass plant response rating [16, 28]: 0; B. signalgrass plant response rating [16, 29]: 0; B. signalgrass plant response rating [16, 30]: 0
